“Also recorded” adds a separate entry of the source.
Legend:
[1] = tested on: Sprague-Dawley rats; experiment: Protein biomarkers in feces, TNBS rat colitis model, ELISA (Example E2); type: in vivo; conditions: 31 mg/kg/day, normalized to total protein, vs vehicle
Procedure: The animals were grouped into sham, vehicle, and Peptide 993 treatment at 31 mg/kg/day. Feces were collected from the distal colon of rats and were immediately frozen at the time of necropsy. The feces samples were weighed and homogenized in extraction buffer (PBS pH 7.4 containing Pierce Protease Inhibitors, 3× volume:weight). The samples were incubated on ice for 90 minutes, with intermittent vortexing for complete homogenization. After centrifugation at 3000 g at 4 C, the homogenates were transferred to fresh tubes and subjected to another centrifugation at 14000 g at 4 C. The cleared supernatants were saved in multiple aliquots and stored at −80 C until analysis.
The total protein in each sample was quantified using BCA assay. LCN2, MPO, and MMP-9 protein concentration in the feces samples were analysed using commercially available rat ELISA kits. For LCN2, the samples were diluted at different ratios with assay dilution buffer to capture the large variation in concentration amongst the different treatment groups. The dilution ratios used were 1:20 (sham), 1:200, 1:1000, 1:2000, and 1:4000 (vehicle and Peptide 993).
The concentration of LCN2 was normalized to the total protein measured for the sample. […] Statistical analysis was performed using 1-Way-ANOVA with Dunnetts's multiple comparison.
Fecal homogenates were analyzed for Myeloperoxidase (MPO) concentration using the Rat MPO ELISA kit (Catalog # HK105, Hycult biotech). The samples were used at dilutions ranging from 1:20 to 1:1000, to ensure that the measurements were within the range and sensitivity of the kit. […] A linear equation was used to fit the Standard Curve and the fitting parameters were used to calculate the concentration of MPO. The concentration of MPO for each sample was normalized to the total protein measured for the sample as described above. […] Statistical analyses were performed using 1-Way-ANOVA with Dunnetts's multiple comparison.

[2] = tested on: Sprague-Dawley rats; experiment: Distal colon markers in TNBS-induced rat colitis: MPO, IL-17A, IL-22 by ELISA, pStat3 by IHC (Example E4); type: in vivo
Procedure: In the first model, acute colitis was induced in Sprague-Dawley rats by a single intra-rectal instillation of TNBS followed by efficacy analysis at day seven. The animals were grouped into sham+vehicle (PO TID), TNBS+vehicle (PO TID), anti-IL23p19 antibody (4 mg/kg/day IP, Day −1 and Day 3), and Peptide 993 treatment at 9, 28, or 61 mg/kg/day (PO TID+in drinking water). Sham indicates animals not treated with TNBS.
In addition, myeloperoxidase (MPO), IL-17A, and IL-22 detected from sampled tissue were quantified by enzyme-linked immunosorbent assay (ELISA), and the results are shown in FIGS. 10A-10C. The percentage of phosphorylated Signal Transducer and Activator of Transcription 3 (Stat3) was normalized to the area of the distal colon quantified by immuno-histochemistry (IHC) (FIG. 10D), and the micrographs shown in FIG. 10E are representative images from each indicated group for IHC analysis of pStat3 expression. Values shown as mean±SD. Statistical significance was assessed by One-way ANOVA with post-hoc Dunnett's vs. Vehicle control: *p≤0.05; **p≤0.01; ***p≤0.001; ****p≤0.0001; ns, not significant.
For the pSTAT3 assays, colon tissue samples were processed routinely, sectioned at approximately 3-5 microns, fixed in 10% neutral buffered formaldehyde, processed in paraffin, and immunolabeled with an anti-pSTAT3 primary antibody that binds STAT3 phosphorylated at Tyrosine 705 (Abcam, Cat. No. ab76315 PUR). pSTAT3 immunolabel as a percentage of total areas was measured using Visiopharm© image analysis software. Image analysis involved outlining the colon tissue as a region of interest (ROI), then an automated thresholding method was utilized for the classification of the pSTAT3 positive immunolabel. After classification, the total tissue area within the ROI was calculated, along with the count of pSTAT3 positive cells and the area (in microns) of the pSTAT3 positive cells. Lastly, the pSTAT3 immunolabel percentage of the total tissue area was calculated.
The details of the pSTAT3 Image Analysis Protocol were as follows:
1. ROI • a. Tissue was outlined, and non-colon tissues were excluded.
2. Pre-processing • a. Image was converted into grayscale-pixel values processed to be 0-255 • b. Grayscale image was filtered into two channels: • i. The DAB (or pSTAT3 positive) channel with pixels associated with the brown DAB staining; and • ii. The hematoxylin channel with pixels associated with the tissue area not stained with DAB (includes all tissue area and background staining).
3. Analysis & Classification • a. Algorithm using a “threshold” method was used to classify the tissue area within the ROI. • i. Threshold of the DAB channel was set to classify the positive pSTAT3 stained cells as any/all pixels (from the DAB channel of the pre-processed image) with values between 0-135. A green label was applied to these positively classified cells. • 1. Pixels with values outside the threshold of 0-135 were considered to be part of the tissue area (within the ROI). • b. […]
4. […] The total tissue area (within the ROI) was calculated-unit was in microns. • b. The total pSTAT3 positive area was calculated-unit is in microns. • c. The “count” of pSTAT3 positive cells was calculated. • d. The fraction of pSTAT3 positive cells was calculated by dividing the pSTAT3 positive area by the total tissue area-unit was in microns. • e. The nuclear density per square millimeter was calculated, simply to change the units from microns to square millimeter.

[3] = tested on: Sprague-Dawley rats; experiment: IL-23-directed cytokines in distal colon of 5% DSS-induced acute colitis rats, qRT-PCR and ELISA (Example E4); type: in vivo, rat
Procedure: In the second model, acute colitis was induced in Sprague-Dawley rats by ad libitum access to 5% DSS dissolved in drinking water every day until analysis at day five. The animals were grouped into sham+vehicle (PO TID), DSS+vehicle (PO TID), and DSS+Peptide 993 treatment at 61 mg/kg/day (PO TID+in drinking water).
Expression of genes encoding IL-17A, IL-17F, and IL-22 was quantified by quantitative reverse transcription polymerase chain reaction (qRT-PCR), and production of IL-22 protein was quantified by ELISA. Relative expression was normalized to that of HPRT1; and values were determined as geometric mean±95% confidence interval. Protein concentration is shown as mean±SD. Statistical significance was assessed by One-way ANOVA with post-hoc Dunnett's vs. Vehicle control: *p≤0.05; **p≤0.01; ***p≤0.001; ns, not significant.

[4] = TNBS rats, oral treatment, ELISA
[5] = DSS rats, 61 mg/kg/day oral, distal colon, normalized to HPRT1

`CC(=O)NC(CCCNC(=N)N)C(=O)NC1CCSCC(C(=O)NC(Cc2ccc(OCCN)cc2)C(=O)NC(Cc2ccc3ccccc3c2)C(=O)NC2(C(=O)NC(CCC(=O)O)C(=O)NC(CC(N)=O)C(=O)NC(CC(N)=O)C(N)=O)CCOCC2)NC(=O)C(CCC(N)=O)NC(=O)C(Cc2c[nH]c3ccccc23)NC(=O)C(C(C)O)NC(=O)C(CCC(N)=O)NC1=O` (stereo not shown) [Peptide 993, Ac-[(D)-Arg]-cyclo[[Abu]-QTWQC]-[Phe[4-(2-aminoethoxy)]]-[2-Nal]-[4-amino-4-carboxy-tetrahydropyran]-ENN-NH2] was tested, and the “fecal LCN2 concentration” value [1] was “statistically significant decrease; also recorded: stastically significant decrease”, the “fecal MMP-9 concentration” value [1] was “stastically significant decrease” and the “fecal MPO concentration” value [1] was “statistically significant decrease; also recorded: stastically significant decrease”. For the same compound, the “disease-related and IL-23-directed markers in the distal colons (MPO, IL-17A, IL-22, pStat3)” value ([2]; TNBS rats, 9, 28 or 61 mg/kg/day oral, vs vehicle) was “significant and dose-dependent reduction”, the “colonic levels of MPO” value [2, 4] was “decreased” and the “levels of IL-17A, distal colon” value [2, 4] was “significantly reduced”. The “levels of IL-22, distal colon” value [2, 4] was “significantly reduced”, the “levels of pStat3, distal colon” value ([2]; TNBS rats, oral treatment, IHC, percentage of area) was “restored to control levels” and the “abundance of IL-22 protein” value ([3]; DSS rats, 61 mg/kg/day oral, distal colon, ELISA) was “significant decreases”. The “relative expression of gene encoding IL-17A” value [3, 5] was “significant decreases”, the “relative expression of gene encoding IL-17F” value [3, 5] was “significant decreases” and the “relative expression of gene encoding IL-22” value [3, 5] was “significant decreases”. The “mRNA and/or protein levels of IL-23-directed cytokines in the distal colons” value ([3]; DSS-treated rats, 61 mg/kg/day PO TID + in drinking water, day five, vs vehicle) was “significant reduction”.

Source: patent publication US20200064357A1, “METHODS FOR DETERMINING AND MONITORING GASTROINTESTINAL INFLAMMATION” (Protagonist Therapeutics, Inc., priority 2016, published 2020)
